A short description of test [1]: oral biological activity: % uterine weight increase compared to vehicle. It is filed as in vivo, rat. Conditions: Rattus norvegicus; oral, 30.0 μg. On the procedure: Exemplary compounds were tested for: oral biological activity (Table 1); binding to human carbonic anhydrase II (hCA 2) (Table 2); and, for some compounds enzymatic saponification (Table 3).
Test [2] has as its target human carbonic anhydrase II (hCA 2) (Homo sapiens, UniProt P00918). In words: Human Carbonic Anhydrase II inhibition. It is filed as biochemical. Particulars: read-out: hCAII (IC50 nM).
For test [3], the system named is ovarectomized female rats. Particulars: compared with estradiol and ethinyl estradiol; cited from earlier work.
In a further test the target is T1, sulfatase (Homo sapiens, UniProt P08842).
T1 construct: host or cells: in vivo, women
T1 sequence (P08842 22-583): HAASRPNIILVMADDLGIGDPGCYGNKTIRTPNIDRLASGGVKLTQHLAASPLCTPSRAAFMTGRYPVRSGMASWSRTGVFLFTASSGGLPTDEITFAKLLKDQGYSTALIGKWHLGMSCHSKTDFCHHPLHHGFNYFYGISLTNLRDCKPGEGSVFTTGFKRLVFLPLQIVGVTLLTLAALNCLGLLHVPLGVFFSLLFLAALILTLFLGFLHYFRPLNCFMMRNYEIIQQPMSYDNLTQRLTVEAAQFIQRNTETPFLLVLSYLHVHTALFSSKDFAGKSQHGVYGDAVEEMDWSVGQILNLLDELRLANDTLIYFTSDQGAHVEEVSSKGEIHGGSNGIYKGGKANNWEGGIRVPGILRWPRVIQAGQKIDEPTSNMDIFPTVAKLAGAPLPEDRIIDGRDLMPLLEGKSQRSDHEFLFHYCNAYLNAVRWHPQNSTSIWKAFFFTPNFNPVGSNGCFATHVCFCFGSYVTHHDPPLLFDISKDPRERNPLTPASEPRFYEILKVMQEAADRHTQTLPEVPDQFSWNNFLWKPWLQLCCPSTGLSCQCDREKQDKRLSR
Conditions: in women; cited from earlier work.

Consider `C[C@]12CCC3c4ccc(OS(N)(=O)=O)cc4CCC3C1CC[C@@H]2O` (stereo partly drawn) [Compound J995, (13S,17S)-17-hydroxy-13-methyl-7,8,9,11,12,13,14,15,16,17-decahydro-6H-cyclopenta[a]phenanthren-3-yl sulfamate, reference compound], for which the change in vivo at 0.03 mg in test [1] amounted to 203%. For the same compound, the concentration for half-maximal inhibition (IC50) (as a rule, the point on the concentration scale where inhibition reaches its midpoint) in test [2] was 295 nM. In test [3], the “estrogenic activity after oral administration” value was “higher estrogenic activity after oral administration than estradiol and ethinyl estradiol”. Further, the inhibition of sulfatase entry on sulfatase is on record as “acted as an inhibitor of sulfatase”.

(Values after patent publication US10273263B2, “Pro-drug forming compounds” (priority 2013, dated 2019).)
